# Source: patent US20190083498A1, “THERAPIES FOR HEMATOLOGIC MALIGNANCIES” (GILEAD CALISTOGA LLC, priority 2008, published 2019)
# Values joined by “and” are separate entries in the source; they are usually repeats but may differ in a detail not shown here. Equal values may be shown once.
# Legend:
# over 350 protein kinases = test: Ambit KINOMEscan kinome-wide protein kinase screen; type: binding; details: 10 μM
# Text: Examples of some kinases in the screen are shown below in Table 3.
# [1] = test system: patient chronic lymphocytic leukemia (CLL) cells; test: Apoptosis of patient CLL cells, Annexin V-FITC/PI flow cytometry; type: cell-based, human
# Experimental: Peripheral blood was obtained from patients with B-CLL through the CLL Research Consortium from Ohio State University. Primary CD19-positive cells were isolated using Rosette-Sep (StemCell Technologies). Cells were maintained in RPMI 1640 (Invitrogen) supplemented with 10% heat-inactivated fetal bovine serum, 2 mmol/L L-glutamine, and penicillin (100 units/mL)/streptomycin (100 μg/mL; Invitrogen) at 37° C., 5% CO2, and high humidity. After incubation with the compound of formula I or medium for 96 hours, 5×10^5 cells were washed with PBS and then resuspended in binding buffer (10 mmol/L HEPES/NaOH, pH 7.4, 150 mmol/L NaCl 5 mmol/L KCl, 1 mmol/L MgCl2, 1.8 mmol/L CaCl2) containing 2 μL of Annexin V-FITC stock (BioWhittaker, Inc) and 10 μL of 20 μg/mL PI (Sigma). After incubation for 10 minutes at room temperature in a light-protected area, the specimens were quantified by flow cytometry on a FACScan™ (Becton Dickinson).
# [2] = test system: T-ALL and B-ALL leukemic cell lines; test: Viability of ALL cell lines, AlamarBlue; type: cell-based; details: 48 hours
# Experimental: Viability assays of cell lines were performed using the AlamarBlue assay (Invitrogen). Cells (1×10^6 per well) in a volume of 100 μL were placed in a 96-well flat-bottom plate and the compound of formula I (100 μL per well at 2× final concentration) or medium alone was added to the plates. All were performed in quadruplicate. Cells were incubated for fixed times (48 hours). After the incubation, 10 μL AlamarBlue® was added to each well. Cells were incubated for 4 hours and the optical density at 530-560 nm was obtained using a SpectraMax® M5 plate reader 2001. Cell viability was expressed as a percentage of absorption between treated cells/control sample.
# phospho-Akt(Ser473) = test: Constitutive Akt phosphorylation in leukemia and lymphoma cell lines, immunoblot; type: cell-based
# Experimental: A large panel of leukemia and lymphoma cell lines was assessed for constitutive Akt phosphorylation. These cell lines represent B-lymphoma, T-lymphoma, ALL, Malignant histiocytosis, DLBCL and AML. […] Thereafter, cell were lysed, size-fractioned and immunoblotted with antibodies directed against phospho-Akt(Ser473).
# The PI3K pathway is frequently deregulated in leukemia and lymphoma cell lines. […] In addition, PI3K pathway activation is dependent on p110δ.
# pAKT = pAKT in DLBCL cell lines; type: cell-based
# leukemia cell lines = test: Apoptosis in leukemia cell lines, Annexin V-FITC/7AAD; type: cell-based; details: 1 μM or 10 μM; 24 hrs
# Experimental: The percentage of apoptotic cells was determined by Annexin V-FITC/7AAD staining.
# [3] = test system: cleavage of caspase 3 and PARP; test: Caspase 3 and PARP cleavage, MSD multi-spot plates; type: cell-based; details: 5 or 10 μM; 24 hrs
# Experimental: Thereafter, cells were lysed and sized-fractionated and immunoblotted with antibody directed against FLIP, FIG. 29. Additionally, whole cell lysates were added to MDS (Meso Scale Diagnostics) multi-spot 96-well 4 spot plates coated with Total caspase-3, cleaved caspase-3, cleaved PARP, and BSA. Proteins were detected with antibodies labeled with SULFO-TAG reagent and quantified.
# Phospho-Akt = Phospho-Akt production in patient AML cells; type: cell-based, human; details: 0.1, 1.0, 10 μM
# Text: PI3Kδ is implicated in signaling in AML patient cells.
# [4] = Blood glucose and insulin levels of a subject; type: in vivo, human
# [5] = test system: p110δ-negative cell lines; test: Growth inhibition of p110δ-negative MM cell lines, MTT; type: cell-based, human; details: 48 h
# INA-6 cells = test: AKT and ERK pathway phosphorylation, immunoblotting; type: cell-based, human
# Text: Whole-cell lysates were subjected to sodium dodecyl sulfate-polyacrylamide gel electrophoresis (SDS-PAGE) separation, transferred to Pure Nitrocellulose membranes (Bio-Rad Laboratories, Hercules, Calif.), and immunoblotted with anti-AKT, phospho(p)-AKT (Ser473, Thr 308), ERK1/2 , P-ERK1/2, P-PDK1, STAT, P-STAT, P-FKRHL, P-70S6K, LC3, and PI3K/p110 α Abs (Cell Signaling Danvers, Mass.); anti-p110β, PI3K/p110δ, Glyceraldehyde 3-phosphate dehydrogenase (GAPDH), α-tubulin, and actin Abs (Santa Cruz Biotechnology, Calif.); and anti-p110 γ Ab (Alexis, San Diego, Calif.): and anti-LC3 Ab (Abgent, San Diego, Calif.).
# Actin Ab was used as a loading control. […] Whole cell lysates were subjected to immunoblotting using AKT, P-AKT (Ser473 and Thr308), ERK1/2, P-ERK1/2, P-PDK1, and P-FKRHL antibodies. α-tubulin is used as a loading control.
# LB and INA-6 cells = test: MM cell DNA synthesis with IL-6 or IGF-1, [3H]-thymidine incorporation; type: cell-based, human; details: 5.0 or 10 μM; IL-6 1 and 10 ng/ml, IGF-1 10 and 100 ng/mL
# Experimental: DNA synthesis was determined by measuring [3H]-thymidine incorporation during the last 8 h of 72 h cultures. Data represent means (±SD) of triplicate cultures.
# [6] = test system: phospho-AKT (ser473) in INA-6 cells; test: Bortezomib-induced AKT phosphorylation, western blotting; type: cell-based, human; details: compound I 5 μM, bortezomib 5 nM; 6 h
# Experimental: Phosphorylation of AKT was determined by western blotting of cell lysates using phospho-AKT (ser473) antibody, FIG. 37B. Actin served as a loading control.
# [7] = test system: CLL cells on StromaNKTert; test: Calcein-based adhesion assay of CLL cells on stroma; type: cell-based, human
# Experimental: Calcein-based adhesion assay: a confluent monolayer of CD154+ L or StromaNKTert cells was generated by plating 1×10^4 cells/well in 96-well plates for 24 hours. Single cell suspensions of CLL cells at 0.5×10^6 cells/ml were then labeled with 1 μg/mL Calcein-AM (Invitrogen) for 1 hour. Cells were then spun down and treated with compound or vehicle for 1 to 24 hours. Non-adherent cells were washed off by aspiration. CLL cell adhesion was quantified by fluorimetry (Ex/Em=485/520 nm), and visualized directly using the Nikon TE2000 inverted live-cell imaging system.
smiles,measurement,setting,value
"CC[C@H](Nc1ncnc2[nH]cnc12)c1nc2cccc(F)c2c(=O)n1-c1ccccc1 [Compound I, 5-fluoro-3-phenyl-2-[1-(9H-purin-6-ylamino)-propyl]-3H-quinazolin-4-one]",off target activity in kinome-wide protein kinase screen,over 350 protein kinases,failed to detect any activity
same,off target activity in kinome-wide protein kinase screen,over 350 protein kinases; listed as compound of formula I,little activity
same,apoptosis of CLL cells from poor prognosis patients,[1],induced apoptosis was seen
same,apoptosis of CLL cells from refractory/relapsed patients,[1],induced apoptosis was also seen to be effective
same,apoptosis of CLL patient cells,[1]; 96 hours,results in apoptosis
same,cellular viability of ALL cell lines,[2],significant reduction in cell viability
same,cellular viability of ALL cell lines,[2]; listed as compound I,substantial reduction in cellular viability
same,cell lines in which constitutive AKT phosphorylation was inhibited (FIG. 9),"phospho-Akt(Ser473); 10 μM, 2 hrs, including B-cell and T-cell lymphomas",11 out of 11
same,constitutive Akt(Ser473) phosphorylation,"phospho-Akt(Ser473); hematopoietic tumor cell lines, 2 hours",Reduction in Akt(Ser473) was achieved for all cell lines
same,cell lines in which constitutive AKT phosphorylation was inhibited,phospho-Akt(Ser473); leukemia and lymphoma cell lines with constitutive p-AKT,13 of 13 and 13 out of 13
same,pAKT levels in DLBCL cell lines,pAKT,reduces pAKT levels
same,apoptosis in leukemia cell lines,leukemia cell lines,induces apoptosis
same,cleavage of caspase 3 and PARP,[3],dose dependent response
same,phospho-Akt production in patient AML cells,Phospho-Akt,reduces phopsho-Akt production
same,insulin levels,[4]; after 7 days of treatment,remained within the normal range
same,blood glucose concentration,"[4]; after 10 days, highest dosage (50-200 mg BID)",remained steady
same,cytotoxicity in p110δ-negative cell lines,[5],minimal cytotoxicity
same,phosphorylation of upstream PDK-1 and downstream FKHRL,"INA-6 cells; INA-6 and LB MM cells, 0-6 hours",significantly inhibited
same,phosphorylation of AKT and ERK1/2,INA-6 cells; p110δ positive INA-6 cells,significantly blocked
same,growth inhibition in the presence of IL-6 or IGF-1,LB and INA-6 cells,Neither IL-6 nor IGF-1 protected
same,induction of phospho-Akt by bortezomib treatment,[6],inhibited
same,CLL cell adherence to stroma after one hour,[7],reduced adherence
same,CLL cell adherence to stroma at 24 hours,[7]; 10 μM,less adherent
